The source made the active and inactive calls.
Experiments:
Homo sapiens = species: Homo sapiens; test: Inhibition of clathrin at 100 uM
[1] = Inhibition of sheep dynamin 1 GTPase activity after 30 mins by malachite-green method; set-up: species or system Ovis aries
Dynamin-1 (Homo sapiens) = target: T1, Dynamin-1 (Homo sapiens) (UniProt Q05193); test: Inhibition of dynamin1-mediated endocytosis in human U2OS cells assessed as inhibition of Texas red-Tf uptake incubated up to 300 uM for 30 mins prior to Texas red-Tf addition measured after 8 mins by receptor-mediated endocytosis assay; format: cell-based
T1 sequence (whole entry): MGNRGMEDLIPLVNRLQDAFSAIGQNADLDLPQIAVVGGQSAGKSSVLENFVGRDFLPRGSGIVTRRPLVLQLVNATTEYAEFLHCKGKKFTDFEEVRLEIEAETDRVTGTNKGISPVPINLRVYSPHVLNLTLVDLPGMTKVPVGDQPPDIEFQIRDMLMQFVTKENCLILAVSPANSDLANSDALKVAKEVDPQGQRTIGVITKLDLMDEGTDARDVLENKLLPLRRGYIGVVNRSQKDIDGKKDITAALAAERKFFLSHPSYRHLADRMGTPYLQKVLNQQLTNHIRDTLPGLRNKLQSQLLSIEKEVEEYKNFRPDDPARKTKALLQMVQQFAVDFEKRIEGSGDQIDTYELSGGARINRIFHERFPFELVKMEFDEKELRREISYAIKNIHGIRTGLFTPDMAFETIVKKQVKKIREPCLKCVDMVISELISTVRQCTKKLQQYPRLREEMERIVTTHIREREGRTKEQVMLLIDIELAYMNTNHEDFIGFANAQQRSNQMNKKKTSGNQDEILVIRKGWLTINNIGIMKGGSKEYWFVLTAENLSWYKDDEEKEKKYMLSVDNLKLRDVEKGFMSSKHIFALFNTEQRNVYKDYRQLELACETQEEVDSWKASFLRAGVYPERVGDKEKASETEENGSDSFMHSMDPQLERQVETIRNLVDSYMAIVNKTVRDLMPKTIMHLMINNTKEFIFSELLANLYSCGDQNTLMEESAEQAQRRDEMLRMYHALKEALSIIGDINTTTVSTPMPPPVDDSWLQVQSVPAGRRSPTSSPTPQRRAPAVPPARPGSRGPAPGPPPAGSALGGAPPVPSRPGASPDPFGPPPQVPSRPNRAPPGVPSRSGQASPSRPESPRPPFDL

Ovis aries = species: Ovis aries; test: Inhibition of sheep dynamin 1 GTPase activity up to 300 uM after 30 mins by malachite-green method

inhibition (Homo sapiens) | IC50 [1] [µM] | inhibition (Dynamin-1 (Homo sapiens)) | inhibition (Ovis aries) | Compound
inactive | – | – | inactive | O=C1/C(=C/c2ccc3nsnc3c2)SC(=S)N1Cc1ccccc1
inactive | 7.5 | – | – | O=C1NC(=S)S/C1=C\c1cc(Cl)cc(Cl)c1
inactive | – | – | inactive | O=C1NC(=S)S/C1=C\c1ccc(-c2ccccc2)cc1
inactive | 4.4 | inactive | – | O=C(O)CCN1C(=O)/C(=C/c2cc(Cl)cc(Cl)c2)SC1=S
inactive | 3.6 | – | – | C=CCN1C(=O)/C(=C/c2ccc(OCCCN(C)C)cc2)SC1=S
inactive | 43 | inactive | – | O=C1NC(=S)S/C1=C\c1cnc2ccccc2n1
inactive | 10 | – | – | O=C(O)CCN1C(=O)/C(=C/c2coc3c(Cl)cc(Cl)cc3c2=O)SC1=S
inactive | – | – | inactive | O=C(O)CCN1C(=O)/C(=C/c2cnc3ccccc3n2)SC1=S
inactive | 12.3 | – | – | O=C(O)CN1C(=O)/C(=C/c2csc3ccc(Cl)cc23)SC1=S
inactive | – | – | inactive | O=C1/C(=C/c2cnc3ccccc3n2)SC(=S)N1Cc1ccccc1
inactive | > 100 | – | – | O=C(O)CN1C(=O)/C(=C/c2cnc3ccccc3n2)SC1=S
inactive | 3.1 | inactive | – | CCN1C(=O)/C(=C/c2cc(Cl)cc(Cl)c2)SC1=S
inactive | 48 | inactive | – | O=C(O)CCN1C(=O)/C(=C/c2csc3ccc(Cl)cc23)SC1=S
inactive | – | – | – | CN(C)CCCOc1ccc(/C=C2\SC(=S)N(CCC(=O)O)C2=O)cc1
inactive | – | – | inactive | O=C(O)CN1C(=O)/C(=C/C2=Cc3ccccc3OC2)SC1=S
inactive | – | – | inactive | CCN1C(=O)/C(=C/c2ccc(Br)cc2)SC1=S
inactive | 22 | inactive | – | CN(C)CCCOc1ccc(/C=C2\SC(=S)N(Cc3ccccc3)C2=O)cc1
inactive | – | – | inactive | O=C(O)CN1C(=O)/C(=C/c2ccc3nonc3c2)SC1=S
inactive | 134 | – | – | O=C1/C(=C/c2ccc(Br)cc2)SC(=S)N1Cc1ccccc1
inactive | – | – | inactive | CCN1C(=O)/C(=C/c2cnc3ccccc3n2)SC1=S
inactive | 42 | – | – | O=C(O)CCN1C(=O)/C(=C/c2ccc(-c3ccccc3)cc2)SC1=S
inactive | – | – | inactive | C=CCN1C(=O)/C(=C/C2=Cc3ccccc3OC2)SC1=S
inactive | – | – | inactive | CCN1C(=O)/C(=C/C2=Cc3ccccc3OC2)SC1=S
inactive | 90 | – | – | O=C1NC(=S)S/C1=C\C1=Cc2ccccc2OC1
inactive | 9 | – | – | O=C(O)CCN1C(=O)/C(=C/c2ccc(Br)cc2)SC1=S
inactive | – | – | inactive | CCN1C(=O)/C(=C/c2csc3ccc(Cl)cc23)SC1=S
inactive | 5.1 | – | – | CCN1C(=O)/C(=C/c2coc3c(Cl)cc(Cl)cc3c2=O)SC1=S
inactive | – | – | inactive | CCN1C(=O)/C(=C/c2ccc(-c3ccccc3)cc2)SC1=S
inactive | – | – | inactive | CCN1C(=O)/C(=C/c2ccc3nsnc3c2)SC1=S

Continued, molecule first:

Compound | inhibition (Homo sapiens) | IC50 [1] [µM] | inhibition (Dynamin-1 (Homo sapiens)) | inhibition (Ovis aries)
CCN1C(=O)/C(=C/c2ccc(OCCCN(C)C)cc2)SC1=S | inactive | 6.4 | – | –
O=C(O)CN1C(=O)/C(=C/c2cc(Cl)cc(Cl)c2)SC1=S | inactive | 5.5 | inactive | –
O=C1/C(=C/c2ccc3nonc3c2)SC(=S)N1Cc1ccccc1 | inactive | 53 | – | –
O=C1NC(=S)S/C1=C\c1csc2ccc(Cl)cc12 | inactive | 5.5 | – | –
O=C(O)CN1C(=O)/C(=C/c2coc3c(Cl)cc(Cl)cc3c2=O)SC1=S | inactive | 3.4 | – | –
O=C(O)CN1C(=O)/C(=C/c2ccc(-c3ccccc3)cc2)SC1=S | inactive | 73 | – | –
O=C1/C(=C/C2=Cc3ccccc3OC2)SC(=S)N1Cc1ccccc1 | inactive | – | – | inactive
O=C1NC(=S)S/C1=C\c1ccc2nsnc2c1 | inactive | – | – | inactive
C=CCN1C(=O)/C(=C/c2ccc3nsnc3c2)SC1=S | inactive | – | – | inactive
CN(C)CCCOc1ccc(/C=C2\SC(=S)N(CC(=O)O)C2=O)cc1 | inactive | – | – | inactive
O=C(O)CCN1C(=O)/C(=C/c2ccc3nonc3c2)SC1=S | inactive | – | – | inactive
C=CCN1C(=O)/C(=C/c2cc(Cl)cc(Cl)c2)SC1=S | inactive | 31 | inactive | –
O=C1NC(=S)S/C1=C\c1ccc2nonc2c1 | inactive | 7.4 | – | –
O=C(O)CN1C(=O)/C(=C/c2ccc3nsnc3c2)SC1=S | inactive | – | – | inactive
O=C1/C(=C/c2cc(Cl)cc(Cl)c2)SC(=S)N1Cc1ccccc1 | inactive | 50 | inactive | –
CN(C)CCCOc1ccc(/C=C2\SC(=S)NC2=O)cc1 | inactive | – | – | inactive

Compound | inhibition (Homo sapiens) | IC50 [1] [µM] | inhibition (Dynamin-1 (Homo sapiens)) | inhibition (Ovis aries)
C=CCN1C(=O)/C(=C/c2cnc3ccccc3n2)SC1=S | inactive | – | – | inactive
O=C1/C(=C/c2coc3c(Cl)cc(Cl)cc3c2=O)SC(=S)N1Cc1ccccc1 | inactive | 7.4 | – | –
O=C1NC(=S)S/C1=C\c1coc2c(Cl)cc(Cl)cc2c1=O | inactive | 24 | – | –
C=CCN1C(=O)/C(=C/c2coc3c(Cl)cc(Cl)cc3c2=O)SC1=S | inactive | > 100 | – | –
C=CCN1C(=O)/C(=C/c2ccc3nonc3c2)SC1=S | inactive | – | – | inactive
O=C(O)CCN1C(=O)/C(=C/c2ccc3nsnc3c2)SC1=S | inactive | > 100 | – | –
C=CCN1C(=O)/C(=C/c2ccc(Br)cc2)SC1=S | inactive | – | – | inactive
O=C(O)CN1C(=O)/C(=C/c2ccc(Br)cc2)SC1=S | inactive | > 100 | – | –
O=C1/C(=C/c2ccc(-c3ccccc3)cc2)SC(=S)N1Cc1ccccc1 | inactive | – | – | inactive
O=C1/C(=C/c2csc3ccc(Cl)cc23)SC(=S)N1Cc1ccccc1 | inactive | – | – | inactive
C=CCN1C(=O)/C(=C/c2ccc(-c3ccccc3)cc2)SC1=S | inactive | – | – | inactive
CCN1C(=O)/C(=C/c2ccc3nonc3c2)SC1=S | inactive | – | – | inactive
O=C1NC(=S)S/C1=C\c1ccc(Br)cc1 | inactive | – | – | inactive
C=CCN1C(=O)/C(=C/c2csc3ccc(Cl)cc23)SC1=S | inactive | – | – | inactive
O=C(O)CCN1C(=O)/C(=C/C2=Cc3ccccc3OC2)SC1=S | inactive | 23.5 | – | –
